Test results taken from ChEMBL document CHEMBL1201862, “PubChem BioAssay data set” (2004).
Calls of active or inactive are those of the source.

Experiments:
[1] = target: T1, Leucine aminopeptidase (Plasmodium falciparum 3D7, UniProt Q8IL11); assay: P. falciparum M17LAP inhibitors, primary screen, biochemical, fluorogenic H-Leu-NHMec substrate, 1536-well (AID 1619); format: functional
T1 sequence (Q8IL11 whole entry): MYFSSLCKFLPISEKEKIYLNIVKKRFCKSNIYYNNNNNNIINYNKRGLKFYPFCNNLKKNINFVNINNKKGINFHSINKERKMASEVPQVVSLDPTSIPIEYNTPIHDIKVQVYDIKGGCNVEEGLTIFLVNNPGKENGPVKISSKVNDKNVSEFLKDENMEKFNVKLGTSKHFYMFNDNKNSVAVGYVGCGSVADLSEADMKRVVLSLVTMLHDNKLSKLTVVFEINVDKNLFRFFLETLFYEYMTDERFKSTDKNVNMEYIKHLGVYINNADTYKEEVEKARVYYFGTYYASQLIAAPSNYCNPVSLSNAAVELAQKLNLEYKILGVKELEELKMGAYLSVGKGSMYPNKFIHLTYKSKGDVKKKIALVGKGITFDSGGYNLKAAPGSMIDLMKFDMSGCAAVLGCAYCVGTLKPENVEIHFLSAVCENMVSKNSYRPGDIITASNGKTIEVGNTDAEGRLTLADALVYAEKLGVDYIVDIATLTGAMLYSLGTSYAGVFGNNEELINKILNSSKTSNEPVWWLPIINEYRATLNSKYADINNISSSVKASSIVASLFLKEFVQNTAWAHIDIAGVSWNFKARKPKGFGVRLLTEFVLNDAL

[2] = target: T2, Aspartyl aminopeptidase (Plasmodium falciparum 3D7, UniProt Q8I2J3); assay: Counterscreen for inhibitors of M1 and M17 aminopeptidases: QFRET-based biochemical high throughput dose response assay for inhibitors of the Plasmodium falciparum M18 Aspartyl Aminopeptidase (PFM18AAP). [Related PubChem assays: 1619 (Screening assay (M17LAP inhibitors).), 1445 (Screening assay (M1AAP inhibitors).)]
T2 sequence (Q8I2J3 whole entry): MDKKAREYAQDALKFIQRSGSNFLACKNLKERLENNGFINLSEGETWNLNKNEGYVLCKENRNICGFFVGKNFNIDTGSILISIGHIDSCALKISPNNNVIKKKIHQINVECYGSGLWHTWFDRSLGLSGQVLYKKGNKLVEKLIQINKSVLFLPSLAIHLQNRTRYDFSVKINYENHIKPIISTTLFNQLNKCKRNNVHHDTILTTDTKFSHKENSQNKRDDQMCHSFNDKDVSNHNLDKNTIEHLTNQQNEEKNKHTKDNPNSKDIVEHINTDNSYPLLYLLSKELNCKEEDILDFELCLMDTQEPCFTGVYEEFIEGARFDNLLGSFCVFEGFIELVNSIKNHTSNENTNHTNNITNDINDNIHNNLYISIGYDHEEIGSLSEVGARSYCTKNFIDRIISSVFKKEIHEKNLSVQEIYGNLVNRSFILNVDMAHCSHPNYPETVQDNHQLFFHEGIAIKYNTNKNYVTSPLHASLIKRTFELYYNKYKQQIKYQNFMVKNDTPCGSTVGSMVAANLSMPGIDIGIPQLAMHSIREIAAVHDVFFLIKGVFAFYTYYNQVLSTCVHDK

[3] = target: Procathepsin L (Homo sapiens, UniProt P07711); assay: CTSL1 protease inhibition – biochemical, QFRET, 1536-well, counter-screen for M1/M17 aminopeptidase inhibitor project, dose response (AID 2214)
[4] = system: Streptococcus sp. 'group A'; assay: Streptococcus pyogenes SK(-)GAS viability under kanamycin – luminescence, BacTiterGlo, confirmation, counter-screen for streptokinase expression inhibitor project, dose response (AID 1900); format: functional, organism-based; settings: Streptococcus sp. 'group A'
[5] = cells; format: functional, cell-based
[6] = system: Vero; assay: mammalian cell viability reduction – secondary assay, cytotoxicity control for West Nile virus antiviral project, dose response (AID 1650); format: functional; settings: Chlorocebus sabaeus
[7] = Trypanosoma cruzi growth suppression in host cells – NIH3T3 host cells, beta-gal luminescence, confirmation (AID 2044); format: functional, cell-based;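 also: intracellular parasites grown in NIH/3T3 mouse fibroblasts as host cells; luminescent beta-galactosidase reporter signal from transgenic T. cruzi replicating inside host cells; inhibitors lower the luminescence signal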
[8] = microbe, parasite or virus in culture; format: functional; settings: Mycobacterium tuberculosis
[9] = cells; format: functional, cell-based; remark: listed apart in the source
[10] = NIH3T3 cell viability loss – ATP luminescence, mouse fibroblasts, counter-screen, dose response (AID 2010); format: functional, cell-based;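 also: cells exposed to compound for about 90 hours before reading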
[11] = system: Streptococcus; assay: GAS UMAA2166 growth inhibition – luminescence, BacTiterGlo, counter-screen for streptokinase expression inhibitor project, dose response (AID 1915); format: functional, organism-based; settings: Streptococcus;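 also: potency for reduction of bacterial viability or growth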
[12] = target: Prothrombin (Homo sapiens, UniProt P00734); assay: Thrombin 1536 HTS Dose Response Confirmation. [Related pubchem assays: 1046 (Thrombin 1536 HTS; hits were confirmed in this assay)]; format: functional

Procathepsin L, sequence (P07711 whole entry): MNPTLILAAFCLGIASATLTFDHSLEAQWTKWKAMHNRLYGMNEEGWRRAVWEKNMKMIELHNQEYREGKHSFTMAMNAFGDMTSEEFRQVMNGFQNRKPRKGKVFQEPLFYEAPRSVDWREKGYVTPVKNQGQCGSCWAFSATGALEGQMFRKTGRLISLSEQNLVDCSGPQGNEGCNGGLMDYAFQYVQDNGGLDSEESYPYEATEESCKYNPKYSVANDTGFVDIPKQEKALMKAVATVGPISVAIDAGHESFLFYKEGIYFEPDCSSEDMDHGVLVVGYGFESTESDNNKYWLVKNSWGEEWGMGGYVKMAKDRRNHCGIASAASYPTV

SMILES	IC50 [1]	IC50 [2]	IC50 [3]	CC50 [6]	further results
Cc1ccc(-n2c(C)cc(C(=O)COC(=O)c3ccc[nH]c3=O)c2C)cc1	1.22 µM (active)	> 73.5 µM (not active)	> 59.6 µM (not active)	–	–
Cc1cccc(C)c1Nc1c(-c2ccccn2)nc2ccccn12	–	–	–	4.16 µM (active)	EC50 [4]: 2.52 µM (active); EC50 [5]: 92.4 µM (active); EC50 [7]: 1.45 µM (active); CC50 [8]: 3.91 µM (active); EC50 [9]: > 350 µM (not active); EC50 [10]: 6.81 µM (active); EC50 [11]: 6.43 µM (active)
CCc1cc2ccccc2nc1SCC(=O)Nc1cc(OC)c(OC)cc1C(=O)O	< 1 µM (active)	> 73.5 µM (not active)	> 59.6 µM (not active)	–	–
O=C(Nc1ccccc1-c1nc2ccccc2s1)c1ccco1	–	–	–	12.8 µM (active)	–
CCCC(C)C(=O)Nc1ccc(F)c(Cl)c1 (stereo unspecified)	–	–	–	–	IC50 [12]: > 50 µM (not active)
